Series [1] concerns the target PI3-kinase p110-alpha/p85-alpha (Homo sapiens, UniProt P42336). Briefly: Inhibition of human PI3K p110alpha/p85alpha by fluorescence-based immunoassay. The series is classed as protein-complex assay.
The next series concerns A549. The series is described as follows: Antiproliferative activity against human A549 cells after 72 hrs by MTT assay. Type of series: functional, cell-based. The settings on record: A549, 72 h. Background: Formazan colour is commonly taken as a measure of viable cells.
A further series deals with HeLa. The series is described as follows: Antiproliferative activity against human HeLa cells after 72 hrs by MTT assay. The series is classed as functional, cell-based.
The subject of the next series is MCF7. The series is described as follows: cells. The settings on record: Homo sapiens, MCF7, 72 h.
In another series the test system is HepG2. Briefly: cells. The settings on record: Homo sapiens, HepG2, 72 h.
For series [2], the target named is T1, Phosphatidylinositol 4,5-bisphosphate 3-kinase catalytic subunit delta isoform (Homo sapiens, UniProt O00329).
T1 sequence (O00329 whole entry): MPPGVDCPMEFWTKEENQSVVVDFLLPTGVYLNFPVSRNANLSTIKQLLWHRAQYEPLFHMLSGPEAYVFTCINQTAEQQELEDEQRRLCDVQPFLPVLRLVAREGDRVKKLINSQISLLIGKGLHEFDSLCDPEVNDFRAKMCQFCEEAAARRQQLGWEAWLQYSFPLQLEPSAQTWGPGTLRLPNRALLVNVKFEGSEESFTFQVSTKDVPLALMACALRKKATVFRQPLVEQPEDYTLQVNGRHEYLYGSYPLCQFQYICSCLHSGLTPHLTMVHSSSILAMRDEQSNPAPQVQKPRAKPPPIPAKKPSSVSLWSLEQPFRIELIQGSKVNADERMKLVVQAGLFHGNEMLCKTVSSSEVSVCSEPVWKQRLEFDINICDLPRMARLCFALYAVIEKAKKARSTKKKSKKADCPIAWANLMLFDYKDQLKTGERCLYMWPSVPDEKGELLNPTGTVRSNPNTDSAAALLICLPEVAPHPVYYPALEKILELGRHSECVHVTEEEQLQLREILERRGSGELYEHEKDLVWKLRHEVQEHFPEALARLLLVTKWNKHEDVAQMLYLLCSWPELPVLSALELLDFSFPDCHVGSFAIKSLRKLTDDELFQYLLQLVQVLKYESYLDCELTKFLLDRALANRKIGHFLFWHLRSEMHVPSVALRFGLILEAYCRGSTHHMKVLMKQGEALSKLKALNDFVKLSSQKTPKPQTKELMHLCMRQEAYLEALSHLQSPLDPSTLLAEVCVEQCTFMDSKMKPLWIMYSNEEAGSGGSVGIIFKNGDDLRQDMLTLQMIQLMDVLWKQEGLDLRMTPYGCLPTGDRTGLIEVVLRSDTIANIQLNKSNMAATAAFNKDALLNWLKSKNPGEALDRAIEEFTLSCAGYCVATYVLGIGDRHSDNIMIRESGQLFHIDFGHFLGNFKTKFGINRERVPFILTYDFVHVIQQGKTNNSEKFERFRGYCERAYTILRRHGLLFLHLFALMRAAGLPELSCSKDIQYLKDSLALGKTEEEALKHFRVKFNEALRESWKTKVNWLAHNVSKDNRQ
The series is described as follows: Inhibition of human PI3Kdelta by fluorescence-based immunoassay.

The target in series [3] is Phosphatidylinositol 3-kinase regulatory subunit beta/Phosphatidylinositol 4,5-bisphosphate 3-kinase catalytic subunit beta isoform (Homo sapiens, UniProt P42338). The series is described as follows: Inhibition of human PI3K p110beta/p85beta by fluorescence-based immunoassay. Type of series: protein-complex assay.
The target of series [4] is Phosphatidylinositol 4,5-bisphosphate 3-kinase catalytic subunit gamma isoform (Homo sapiens, UniProt P48736). Briefly: Inhibition of human PI3K 110gamma by fluorescence-based immunoassay.
The nature of series [5]: Cytotoxicity against macrophages after 72 hrs by MTT assay. The series is classed as cell-based, Macrophage.

PI3-kinase p110-alpha/p85-alpha, sequence (P27986 whole entry): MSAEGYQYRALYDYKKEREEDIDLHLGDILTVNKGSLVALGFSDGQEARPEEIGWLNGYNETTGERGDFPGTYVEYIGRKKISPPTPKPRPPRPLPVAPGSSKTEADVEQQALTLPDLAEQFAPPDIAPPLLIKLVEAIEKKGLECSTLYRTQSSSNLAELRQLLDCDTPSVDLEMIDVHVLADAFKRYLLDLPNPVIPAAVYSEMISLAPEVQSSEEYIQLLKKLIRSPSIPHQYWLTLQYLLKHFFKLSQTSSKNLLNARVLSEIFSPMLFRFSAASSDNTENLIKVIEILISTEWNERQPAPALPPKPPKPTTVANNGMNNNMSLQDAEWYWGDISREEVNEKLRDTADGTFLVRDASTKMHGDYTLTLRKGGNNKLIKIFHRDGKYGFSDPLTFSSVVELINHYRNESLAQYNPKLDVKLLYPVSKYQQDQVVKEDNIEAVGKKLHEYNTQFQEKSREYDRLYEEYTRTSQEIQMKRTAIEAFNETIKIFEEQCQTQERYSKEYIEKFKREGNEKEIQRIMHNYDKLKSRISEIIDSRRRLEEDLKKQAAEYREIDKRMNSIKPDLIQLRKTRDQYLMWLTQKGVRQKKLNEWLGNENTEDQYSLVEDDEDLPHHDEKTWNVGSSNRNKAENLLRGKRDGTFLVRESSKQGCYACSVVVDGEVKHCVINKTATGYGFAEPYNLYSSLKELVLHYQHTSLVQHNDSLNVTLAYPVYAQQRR
PI3-kinase p110-alpha/p85-alpha, sequence (P42336 whole entry): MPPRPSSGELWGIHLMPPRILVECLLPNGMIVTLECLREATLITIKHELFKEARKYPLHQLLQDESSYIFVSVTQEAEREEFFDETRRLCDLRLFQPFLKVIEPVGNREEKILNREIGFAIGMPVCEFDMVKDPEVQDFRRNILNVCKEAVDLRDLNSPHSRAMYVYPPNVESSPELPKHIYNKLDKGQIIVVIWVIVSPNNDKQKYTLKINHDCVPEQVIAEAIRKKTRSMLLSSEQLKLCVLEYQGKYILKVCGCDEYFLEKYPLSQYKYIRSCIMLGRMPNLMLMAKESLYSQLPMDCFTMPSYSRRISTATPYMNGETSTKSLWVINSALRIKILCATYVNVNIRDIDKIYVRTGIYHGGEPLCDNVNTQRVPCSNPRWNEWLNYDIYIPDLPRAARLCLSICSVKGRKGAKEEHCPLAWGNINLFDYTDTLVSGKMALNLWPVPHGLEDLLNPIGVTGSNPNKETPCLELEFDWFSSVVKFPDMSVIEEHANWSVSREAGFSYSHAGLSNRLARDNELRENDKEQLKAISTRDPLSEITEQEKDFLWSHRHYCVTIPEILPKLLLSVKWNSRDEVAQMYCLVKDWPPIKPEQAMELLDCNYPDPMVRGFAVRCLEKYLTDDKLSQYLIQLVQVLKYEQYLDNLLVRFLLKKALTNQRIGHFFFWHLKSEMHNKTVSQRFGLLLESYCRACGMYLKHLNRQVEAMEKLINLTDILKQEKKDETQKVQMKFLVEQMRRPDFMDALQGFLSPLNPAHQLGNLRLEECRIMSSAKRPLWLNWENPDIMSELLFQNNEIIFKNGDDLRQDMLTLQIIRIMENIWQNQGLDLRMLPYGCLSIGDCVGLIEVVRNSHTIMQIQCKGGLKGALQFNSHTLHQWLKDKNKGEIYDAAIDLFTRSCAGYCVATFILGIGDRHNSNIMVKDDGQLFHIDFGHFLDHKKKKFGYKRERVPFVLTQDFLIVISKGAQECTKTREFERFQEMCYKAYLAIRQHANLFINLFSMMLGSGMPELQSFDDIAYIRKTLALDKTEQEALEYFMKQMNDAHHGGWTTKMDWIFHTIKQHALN
Phosphatidylinositol 4,5-bisphosphate 3-kinase catalytic subunit gamma isoform, sequence (P48736 whole entry, canonical isoform): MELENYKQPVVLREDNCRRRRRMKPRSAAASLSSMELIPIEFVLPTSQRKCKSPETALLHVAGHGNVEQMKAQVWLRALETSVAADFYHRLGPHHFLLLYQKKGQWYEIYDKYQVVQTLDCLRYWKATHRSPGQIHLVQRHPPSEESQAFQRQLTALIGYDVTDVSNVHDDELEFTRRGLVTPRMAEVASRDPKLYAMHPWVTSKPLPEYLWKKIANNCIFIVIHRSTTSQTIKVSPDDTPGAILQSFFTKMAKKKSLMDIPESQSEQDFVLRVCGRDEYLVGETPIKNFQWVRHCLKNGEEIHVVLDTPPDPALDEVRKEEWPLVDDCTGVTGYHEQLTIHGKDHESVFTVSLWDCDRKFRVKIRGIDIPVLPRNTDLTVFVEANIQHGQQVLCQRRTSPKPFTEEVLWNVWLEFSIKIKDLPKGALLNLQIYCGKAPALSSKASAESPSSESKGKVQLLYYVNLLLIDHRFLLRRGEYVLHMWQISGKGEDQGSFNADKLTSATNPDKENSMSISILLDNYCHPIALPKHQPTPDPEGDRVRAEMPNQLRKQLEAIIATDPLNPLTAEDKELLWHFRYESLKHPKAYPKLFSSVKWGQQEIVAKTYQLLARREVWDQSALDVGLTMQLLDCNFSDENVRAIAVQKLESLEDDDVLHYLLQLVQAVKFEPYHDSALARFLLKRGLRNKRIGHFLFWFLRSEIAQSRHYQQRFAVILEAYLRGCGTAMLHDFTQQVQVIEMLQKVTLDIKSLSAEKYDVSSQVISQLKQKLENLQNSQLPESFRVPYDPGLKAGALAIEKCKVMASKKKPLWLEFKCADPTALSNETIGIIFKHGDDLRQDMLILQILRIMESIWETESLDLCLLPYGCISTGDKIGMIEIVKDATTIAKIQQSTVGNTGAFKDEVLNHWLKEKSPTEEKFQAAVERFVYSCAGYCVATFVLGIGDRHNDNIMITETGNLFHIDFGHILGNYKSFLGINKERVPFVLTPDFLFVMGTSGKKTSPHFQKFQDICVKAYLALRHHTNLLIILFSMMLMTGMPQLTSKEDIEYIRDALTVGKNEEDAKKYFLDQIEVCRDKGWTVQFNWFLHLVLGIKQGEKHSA
Phosphatidylinositol 3-kinase regulatory subunit beta/Phosphatidylinositol 4,5-bisphosphate 3-kinase catalytic subunit beta isoform, sequence (P42338 whole entry, canonical isoform): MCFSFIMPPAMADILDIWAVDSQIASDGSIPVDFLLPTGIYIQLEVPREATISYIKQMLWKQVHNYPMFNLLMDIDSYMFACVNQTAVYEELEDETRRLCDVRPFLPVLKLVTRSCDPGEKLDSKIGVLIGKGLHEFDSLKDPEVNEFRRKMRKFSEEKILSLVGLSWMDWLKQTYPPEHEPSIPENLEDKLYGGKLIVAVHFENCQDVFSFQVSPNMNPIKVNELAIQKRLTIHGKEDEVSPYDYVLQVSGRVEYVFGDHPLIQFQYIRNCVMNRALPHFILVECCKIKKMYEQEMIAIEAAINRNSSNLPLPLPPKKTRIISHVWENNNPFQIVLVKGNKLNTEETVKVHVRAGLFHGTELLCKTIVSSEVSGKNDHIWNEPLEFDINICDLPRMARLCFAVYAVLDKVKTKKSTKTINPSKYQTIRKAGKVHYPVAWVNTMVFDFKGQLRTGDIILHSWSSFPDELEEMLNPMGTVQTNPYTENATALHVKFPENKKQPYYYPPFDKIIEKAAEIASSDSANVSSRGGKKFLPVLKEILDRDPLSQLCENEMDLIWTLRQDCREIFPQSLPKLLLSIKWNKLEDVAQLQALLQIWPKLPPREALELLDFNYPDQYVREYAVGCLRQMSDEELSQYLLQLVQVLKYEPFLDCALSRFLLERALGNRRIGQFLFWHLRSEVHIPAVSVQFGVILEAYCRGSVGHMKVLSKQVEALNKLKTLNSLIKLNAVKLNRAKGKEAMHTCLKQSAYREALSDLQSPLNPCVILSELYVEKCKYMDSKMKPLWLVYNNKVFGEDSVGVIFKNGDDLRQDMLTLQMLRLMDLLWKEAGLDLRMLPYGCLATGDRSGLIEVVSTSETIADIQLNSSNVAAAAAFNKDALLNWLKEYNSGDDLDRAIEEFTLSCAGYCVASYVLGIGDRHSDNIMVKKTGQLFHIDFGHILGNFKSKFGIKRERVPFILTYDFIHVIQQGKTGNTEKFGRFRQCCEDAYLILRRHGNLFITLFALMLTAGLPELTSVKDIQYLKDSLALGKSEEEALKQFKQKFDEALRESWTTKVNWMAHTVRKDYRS
Phosphatidylinositol 3-kinase regulatory subunit beta/Phosphatidylinositol 4,5-bisphosphate 3-kinase catalytic subunit beta isoform, sequence (O00459 whole entry, further chain, canonical isoform): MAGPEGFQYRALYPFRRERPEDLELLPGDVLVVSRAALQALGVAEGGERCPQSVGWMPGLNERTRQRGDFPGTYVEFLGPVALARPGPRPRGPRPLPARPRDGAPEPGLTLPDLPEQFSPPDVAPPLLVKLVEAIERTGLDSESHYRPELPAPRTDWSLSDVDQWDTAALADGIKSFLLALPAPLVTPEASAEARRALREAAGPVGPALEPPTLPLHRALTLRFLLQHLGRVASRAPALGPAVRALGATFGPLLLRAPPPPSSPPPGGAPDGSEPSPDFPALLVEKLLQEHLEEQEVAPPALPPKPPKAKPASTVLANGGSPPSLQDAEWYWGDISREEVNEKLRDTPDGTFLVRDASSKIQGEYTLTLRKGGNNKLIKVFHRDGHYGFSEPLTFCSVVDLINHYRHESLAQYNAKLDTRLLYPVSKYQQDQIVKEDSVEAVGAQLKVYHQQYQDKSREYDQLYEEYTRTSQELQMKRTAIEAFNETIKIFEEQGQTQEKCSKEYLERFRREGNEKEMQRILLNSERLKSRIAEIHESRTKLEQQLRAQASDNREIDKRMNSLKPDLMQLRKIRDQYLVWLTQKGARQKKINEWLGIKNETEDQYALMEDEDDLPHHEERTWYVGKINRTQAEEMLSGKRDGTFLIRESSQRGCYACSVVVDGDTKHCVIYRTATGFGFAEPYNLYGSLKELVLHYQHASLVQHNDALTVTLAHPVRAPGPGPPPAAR

As for `O=C(O)c1cn(C2CC2)c2cc(N3CCN(C(=O)c4cccnc4Cl)CC3)c(F)cc2c1=O`, the concentration for half-maximal inhibition (IC50) is greater than 1000 nM in series [1]; greater than 1000 µM in the series on A549; 279 µM in the series with HeLa; 153 µM in the series on MCF7; 179 µM with HepG2; greater than 1000 nM in series [2]. Moreover, the concentration for half-maximal inhibition (IC50) in [3] is greater than 1000 nM; in [4] it was 265 nM.
Turning to `CCn1cc(C(=O)O)c(=O)c2cc(F)c(N3CCN(C(=O)c4ccc(OC)nc4)CC3)cc21`, the IC50 in series [1] is greater than 1000 nM; with A549 it was greater than 1000 µM; in the series on HeLa it was 154 µM; in the series with MCF7 it was 357 µM; in the series on HepG2, 426 µM; in series [2] it was greater than 1000 nM. Also, the IC50 is greater than 1000 nM in series [3] and 279 nM in series [4].
As to `O=C(O)c1cn(C2CC2)c2cc(N3CCN(C(=O)c4cc([N+](=O)[O-])cc([N+](=O)[O-])c4O)CC3)c(F)cc2c1=O`, the IC50 stood at 356 nM in series [1]; 0.67 µM with A549; 0.06 µM in the series with HeLa; 0.11 µM with MCF7; 0.29 µM with HepG2; 271 nM in [2]. The results for the half-inhibitory concentration (IC50) in [3] and in [4] were greater than 1000 nM and 56 nM, respectively. The midpoint of cytotoxicity in series [5], the CC50 at 72 h, lay at 365 µM.
For the compound `COc1ccc(C(=O)N2CCN(c3cc4c(cc3F)c(=O)c(C(=O)O)cn4C3CC3)CC2)c(O)c1`, the IC50 in [1] was found to be 642 nM; in the series on A549, 0.85 µM; in the series with HeLa it was 0.16 µM; in the series with MCF7 it was 0.33 µM; with HepG2, 2.59 µM; in series [2], 348 nM. Further, the figures for the concentration for half-maximal inhibition (IC50) in series [3] and in [4] were greater than 1000 nM and 89 nM, respectively. The same compound had a 50% cytotoxic concentration (CC50) at 72 h in [5] of 311 µM.
Take `O=C(O)c1cn(C2CC2)c2cc(N3CCN(C(=O)c4cc(Cl)ccc4O)CC3)c(F)cc2c1=O`: the concentration for half-maximal inhibition (IC50) in series [1] turned out to be 963 nM; with A549 it was 114 µM; in the series on HeLa, 64.2 µM; with MCF7 it was 88.4 µM; in the series on HepG2, 50.6 µM; in [2], 553 nM. Further, the half-maximal inhibitory concentration (IC50) is greater than 1000 nM in series [3] and 174 nM in series [4]. This compound also had a CC50 at 72 h in series [5] of 269 µM.
Turning to `CCn1cc(C(=O)O)c(=O)c2cc(F)c(N3CCN(C(=O)c4c(C)cccc4O)CC3)cc21`, the half-maximal inhibitory concentration (IC50) in series [1] stood at 914 nM; in the series on A549, 121 µM; in the series with HeLa, 53.3 µM; in the series with MCF7 it was 107 µM; with HepG2, 27.9 µM; in series [2], 683 nM. Further, the figures for the 50% inhibitory concentration (IC50) in [3] and in [4] were greater than 1000 nM and 173 nM, respectively. In series [5], this compound came in with a CC50 at 72 h of 343 µM.
Turning to `O=C(O)c1cn(C2CC2)c2cc(N3CCN(C(=O)c4cc(Br)ccc4O)CC3)c(F)cc2c1=O`, the IC50 in series [1] was 894 nM; in the series on A549, 77 µM; in the series on HeLa it was 19.6 µM; in the series on MCF7, 22.1 µM; with HepG2, 36.7 µM; in series [2], 674 nM. The IC50 is greater than 1000 nM in series [3] and 169 nM in [4]. This compound also gave a CC50 at 72 h in [5] of 289 µM.
For the compound `CCn1cc(C(=O)O)c(=O)c2cc(F)c(N3CCN(C(=O)c4cc(OC)ccc4O)CC3)cc21`, the half-maximal inhibitory concentration (IC50) in series [1] was 698 nM; in the series with A549, 1.06 µM; in the series with HeLa, 2.11 µM; in the series on MCF7 it was 3.79 µM; in the series on HepG2, 0.47 µM; in series [2], 489 nM. Moreover, the IC50 is greater than 1000 nM in [3] and 112 nM in series [4]. The same compound came in with a CC50 at 72 h in series [5] of 279 µM.
Regarding `O=C(O)c1cn(C2CC2)c2cc(N3CCN(C(=O)c4cc([N+](=O)[O-])ccc4O)CC3)c(F)cc2c1=O`, the half-maximal inhibitory concentration (IC50) amounted to 591 nM in series [1]; 87.1 µM in the series on A549; 25.8 µM with HeLa; 47.9 µM with MCF7; 122 µM in the series on HepG2; 722 nM in series [2]. The half-maximal inhibitory concentration (IC50) is greater than 1000 nM in series [3] and 185 nM in series [4]. In addition, it took 297 µM to reach half-maximal cytotoxicity in series [5] (CC50 at 72 h).
On to `CCn1cc(C(=O)O)c(=O)c2cc(F)c(N3CCN(C(=O)c4cc(Cl)ccc4O)CC3)cc21`, for which the half-inhibitory concentration (IC50) was 712 nM in series [1]; 1.55 µM in the series on A549; 0.96 µM with HeLa; 1.21 µM in the series with MCF7; 2.94 µM in the series on HepG2; 311 nM in series [2]. Moreover, the concentration for half-maximal inhibition (IC50) in series [3] was greater than 1000 nM; in series [4], 98 nM. This compound came in with a 50% cytotoxic concentration (CC50) at 72 h in series [5] of 273 µM.
`CCn1cc(C(=O)O)c(=O)c2cc(F)c(N3CCN(C(=O)c4cccnc4Cl)CC3)cc21`: the IC50 in [1] was greater than 1000 nM; with A549 it was 279 µM; in the series with HeLa it was 88.9 µM; with MCF7, 212 µM; in the series with HepG2, greater than 1000 µM; in series [2], greater than 1000 nM. The IC50 in series [3] was greater than 1000 nM; in series [4], 259 nM.
`CCn1cc(C(=O)O)c(=O)c2cc(F)c(N3CCN(C(=O)c4cc(Br)ccc4O)CC3)cc21`: the IC50 is 695 nM in series [1]; 0.99 µM with A549; 0.51 µM in the series on HeLa; 7.03 µM in the series with MCF7; 3.22 µM with HepG2; 474 nM in series [2]. For the same compound, the IC50 in [3] was greater than 1000 nM; in series [4] it was 111 nM. For the same compound, the CC50 at 72 h in series [5] is 266 µM.
For the compound `CC[C@H](Nc1ncnc2[nH]cnc12)c1nc2cccc(F)c2c(=O)n1-c1ccccc1` [IDELALISIB], the IC50 is 0.33 µM in the series with A549, 0.15 µM with HeLa and 0.78 µM in the series on MCF7.
`COc1ccc(C(=O)N2CCN(c3cc4c(cc3F)c(=O)c(C(=O)O)cn4C3CC3)CC2)cn1`: the IC50 in [1] is greater than 1000 nM; in the series with A549 it was 680 µM; in the series with HeLa it was 344 µM; in the series with MCF7, 42.2 µM; with HepG2 it was 65.9 µM; in [2] it was greater than 1000 nM. The half-maximal inhibitory concentration (IC50) in series [3] is greater than 1000 nM; in series [4], 285 nM.

The IC50 is the concentration needed to halve the response being measured. A higher IC50 goes with weaker potency in that assay. As a reminder, the CC50 is the concentration at which the toxic effect on the cells reaches its halfway point.

Values taken from ChEMBL document CHEMBL3769326, “Discovery of fluoroquinolone derivatives as potent, selective inhibitors of PI3K” (Medchemcomm, 2015).
